Experimental data taken from US20220396569A1 (Carmot Therapeutics, Inc., priority 2021, published 2022).

These molecules were tested against T1, human GLP-1 receptor (Homo sapiens, UniProt P43220) (assay: GLP-1R cAMP Assay (HitHunter cAMP accumulation)). Conditions: cAMP accumulation, CHO cells stably overexpressing human GLP-1 receptor, 30 min treatment; read-out: EC50.
T1 construct: expressed in transfected cells
Type: cell-based
Method: cAMP accumulation was measured in Chinese hamster ovary (CHO) cells stably overexpressing the human GLP-1 receptor using the HitHunter cAMP Assay for Small Molecules Kit (Eurofins). Briefly, cells were grown in Ham's F12 Nutrient Mix with 10% FBS, and lifted with Cell Dissociation Buffer, Enzyme free, PBS based (ThermoFisher). Cells were pelleted, and resuspended in Hank's buffered saline solution with 10 mM HEPES, and 625 μM 3-isobutyl-1-methylxanthine. The anti-cAMP antibody reagent was then added to cells at a 1:2 ratio and 5 μL of mixture was seeded in 384-well small volume white assay plates, at 10,000 cells/well. Cells were then treated with 50 nL compound using an ECHO 550 acoustic dispenser (Labcyte) in a 20-point dose response format in triplicate for 30 min. Cells were then lysed, and detection reagents added according to the manufacturer's protocol. After overnight incubation, luminescence was measured using a Perkin Elmer Envision plate reader. Dose response curves were analyzed using GraphPad Prism 9.0. […]

T1 sequence (P43220 24-463): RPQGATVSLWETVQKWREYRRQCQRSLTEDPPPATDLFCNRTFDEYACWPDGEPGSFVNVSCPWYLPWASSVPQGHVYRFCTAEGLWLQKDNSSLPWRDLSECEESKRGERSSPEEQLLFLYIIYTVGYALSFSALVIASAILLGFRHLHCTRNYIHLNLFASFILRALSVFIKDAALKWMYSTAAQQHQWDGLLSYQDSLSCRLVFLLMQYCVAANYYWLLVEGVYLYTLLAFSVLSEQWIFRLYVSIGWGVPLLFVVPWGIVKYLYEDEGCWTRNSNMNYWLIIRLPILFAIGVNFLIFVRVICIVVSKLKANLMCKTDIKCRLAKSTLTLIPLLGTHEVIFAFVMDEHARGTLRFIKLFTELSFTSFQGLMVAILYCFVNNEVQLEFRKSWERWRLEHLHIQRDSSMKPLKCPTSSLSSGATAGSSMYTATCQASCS

EC50, 50 to 500 nM:
CCn1cncc1Cn1c(CN2CC3(CC(Oc4cccc(COc5ccc(Cl)cc5Cl)c4)C3)C2)nc2ccc(C(=O)O)cc21 [Compound 235, 2-[(6-{3-[(2,4-dichlorophenoxy)methyl]phenoxy}-2-azaspiro[3.3]heptan-2-yl)methyl]-1-[(1-ethyl-1H-imidazol-5-yl)methyl]-1H-1,3-benzodiazole-6-carboxylic acid]
O=C(O)c1ccc2nc(CN3CC[C@H](c4cccc(COc5ccc(Cl)cc5F)c4)C3)n(C[C@@H]3CCO3)c2c1 (single isomer, unassigned) [Example 412]
N#Cc1ccc(OCc2nc(C3=CCN(Cc4nc5c(F)cc(C(=O)O)cc5n4CC4(CC(N)=O)CC4)C3)ccc2F)c(F)c1 [Compound 425, 1-{[1-(carbamoylmethyl)cyclopropyl]methyl}-2-[(3-{6-[(4-cyano-2-fluorophenoxy)methyl]-5-fluoropyridin-2-yl}-2,5-dihydro-1H-pyrrol-1-yl)methyl]-4-fluoro-1H-1,3-benzodiazole-6-carboxylic acid]

EC50, < 50 nM:
CCn1cncc1Cn1c(CN2CC(Cc3ccnc(COc4ccc(Cl)cc4Cl)c3)C2)nc2ccc(C(=O)O)cc21 [Compound 176, 2-{[3-({2-[(2,4-dichlorophenoxy)methyl]pyridin-4-yl}methyl)azetidin-1-yl]methyl}-1-[(1-ethyl-1H-imidazol-5-yl)methyl]-1H-1,3-benzodiazole-6-carboxylic acid]
N#Cc1ccc(OCc2nc([C@@H]3CCN(Cc4nc5ccc(C(=O)O)cc5n4C[C@@H]4CCO4)C3)ccc2F)c(F)c1 (single isomer, unassigned) [Compound 518]
CCn1cncc1Cn1c(Cc2ccc(Oc3ccnc(COc4ccc(Cl)cc4F)c3)cc2F)nc2ccc(C(=O)O)cc21 [Compound 462, 2-{[4-({2-[(4-chloro-2-fluorophenoxy)methyl]pyridin-4-yl}oxy)-2-fluorophenyl]methyl}-1-[(1-ethyl-1H-imidazol-5-yl)methyl]-1H-1,3-benzodiazole-6-carboxylic acid]
N#Cc1ccc(OCc2cc([C@H]3CCN(Cc4nc5c(F)cc(C(=O)O)cc5n4C[C@@H]4CCO4)C3)ccc2F)c(F)c1 (single isomer, unassigned) [Example 449]
Cc1ccc(OCc2cc(Oc3ccc(Cc4nc5ccc(C(=O)O)cc5n4C[C@@H]4CCO4)cn3)ccn2)c(F)c1 [Compound 544, (S)-2-((6-((2-((2-Fluoro-4-methylphenoxy)methyl)pyridin-4-yl)oxy)pyridin-3-yl)methyl)-1-(oxetan-2-ylmethyl)-1H-benzo[d]imidazole-6-carboxylic acid]
N#Cc1ccc(OCc2cccc(O[C@H]3CCN(Cc4nc5ccc(C(=O)O)cc5n4C[C@@H]4CCO4)C3)c2)c(F)c1 [Compound 350, 2-{[(3S)-3-{3-[(4-cyano-2-fluorophenoxy)methyl]phenoxy}pyrrolidin-1-yl]methyl}-1-{[(2S)-oxetan-2-yl]methyl}-1H-1,3-benzodiazole-6-carboxylic acid]
O=C(O)c1ccc2nc(CN3CCC(c4ccnc(COc5ccc(Cl)cc5Cl)c4)C3)n(C[C@@H]3CCO3)c2c1 (stereo partly drawn) [Compound 399]
O=C(O)c1ccc2nc(CN3CC=C(c4cc(COc5ccc(Cl)cc5Cl)ccn4)C3)n(Cc3cnco3)c2c1 [Example 390, 2-((3-(4-((2,4-Dichlorophenoxy)methyl)pyridin-2-yl)-2,5-dihydro-1H-pyrrol-1-yl)methyl)-1-(oxazol-5-ylmethyl)-1H-benzo[d]imidazole-6-carboxylic acid]
O=C(O)c1ccc2nc(CN3CC[C@@H](c4ccc(F)c(COc5ccc(Cl)cc5F)n4)C3)n(C[C@@H]3CCO3)c2c1 (single isomer, unassigned) [Compound 516]
O=C(O)c1ccc2nc(CN3CCC(c4cccc(COc5ccc(Cl)cc5Cl)c4)C3)n(C[C@@H]3CCO3)c2c1 (stereo partly drawn) [Example 383, 2-((3-(3-((2,4-Dichlorophenoxy)methyl)phenyl)pyrrolidin-1-yl)methyl)-1-(((S)-oxetan-2-yl)methyl)-1H-benzo[d]imidazole-6-carboxylic acid]
CCn1cncc1Cn1c(CN2CC(Oc3cccc(COc4ccc(Cl)cc4Cl)c3)C2)nc2ccc(C(=O)O)cc21 [Compound 210, 2-[(3-{3-[(2,4-dichlorophenoxy)methyl]phenoxy}azetidin-1-yl)methyl]-1-[(1-ethyl-1H-imidazol-5-yl)methyl]-1H-1,3-benzodiazole-6-carboxylic acid]
N#Cc1ccc(OCc2nc([C@@]34C[C@@H]3CN(Cc3nc5c(F)cc(C(=O)O)cc5n3C[C@@H]3CCO3)C4)ccc2F)c(F)c1 [Compound 531, 2-{[(1S,5S)-1-{6-[(4-cyano-2-fluorophenoxy)methyl]-5-fluoropyridin-2-yl}-3-azabicyclo[3.1.0]hexan-3-yl]methyl}-4-fluoro-1-{[(2S)-oxetan-2-yl]methyl}-1H-1,3-benzodiazole-6-carboxylic acid]
O=C(O)c1ccc2nc(CN3CC=C(c4cccc(COc5ccc(Cl)cc5Cl)c4)C3)n(C[C@@H]3CCO3)c2c1 [Compound 401, 2-[(3-{3-[(2,4-dichlorophenoxy)methyl]phenyl}-2,5-dihydro-1H-pyrrol-1-yl)methyl]-1-{[(2S)-oxetan-2-yl]methyl}-1H-1,3-benzodiazole-6-carboxylic acid]
CCn1cncc1Cn1c(CN2CCC(Cc3cccc4c3OC(C)(c3ccc(Cl)cn3)O4)CC2)nc2ccc(C(=O)O)cc21 (stereo not drawn) [Compound 184, 2-[(4-{[2-(5-chloropyridin-2-yl)-2-methyl-2H-1,3-benzodioxol-4-yl]methyl}piperidin-1-yl)methyl]-1-[(1-ethyl-1H-imidazol-5-yl)methyl]-1H-1,3-benzodiazole-6-carboxylic acid]
CCn1cncc1Cn1c(CN2CCC(Cn3ccc(COc4ccc(Cl)cc4C#N)n3)CC2)nc2ccc(C(=O)O)cc21 [Compound 282, 2-{[4-({3-[(4-chloro-2-cyanophenoxy)methyl]-1H-pyrazol-1-yl}methyl)piperidin-1-yl]methyl}-1-[(1-ethyl-1H-imidazol-5-yl)methyl]-1H-1,3-benzodiazole-6-carboxylic acid]
N#Cc1ccc(OCc2ccc(F)c(C3=CCN(Cc4nc5ccc(C(=O)O)cc5n4C[C@@H]4CCO4)C3)n2)c(Cl)c1 [Compound 458, 2-[(3-{6-[(2-chloro-4-cyanophenoxy)methyl]-3-fluoropyridin-2-yl}-2,5-dihydro-1H-pyrrol-1-yl)methyl]-1-{[(2S)-oxetan-2-yl]methyl}-1H-1,3-benzodiazole-6-carboxylic acid]
N#Cc1cc(Cl)ccc1OCc1cccc(OC2CN(Cc3nc4ccc(C(=O)O)cc4n3Cc3ncco3)C2)c1 [Compound 229, 2-[(3-{3-[(4-chloro-2-cyanophenoxy)methyl]phenoxy}azetidin-1-yl)methyl]-1-[(1,3-oxazol-2-yl)methyl]-1H-1,3-benzodiazole-6-carboxylic acid]
N#Cc1ccc(OCc2cc(Oc3cnc(Cc4nc5c(F)cc(C(=O)O)cc5n4C[C@@H]4CCO4)c(F)c3)ccn2)c(F)c1 [Compound 542, (S)-2-((5-((2-((4-Cyano-2-fluorophenoxy)methyl)pyridin-4-yl)oxy)-3-fluoropyridin-2-yl)methyl)-4-fluoro-1-(oxetan-2-ylmethyl)-1H-benzo[d]imidazole-6-carboxylic acid]
CCn1cncc1Cn1c(CN2C[C@@H](Oc3ccnc(COc4ccc(Cl)cc4Cl)c3)[C@@H]2C)nc2ccc(C(=O)O)cc21 [Compound 293, 2-{[(2S,3R)-3-({2-[(2,4-dichlorophenoxy)methyl]pyridin-4-yl}oxy)-2-methylazetidin-1-yl]methyl}-1-[(1-ethyl-1H-imidazol-5-yl)methyl]-1H-1,3-benzodiazole-6-carboxylic acid]
O=C(O)c1cc(F)c2nc(Cc3cc(F)c(Oc4ccnc(COc5ccc(Cl)cc5F)c4)cc3F)n(C[C@@H]3CCO3)c2c1 [Compound 538, 2-{[4-({2-[(4-chloro-2-fluorophenoxy)methyl]pyridin-4-yl}oxy)-2,5-difluorophenyl]methyl}-4-fluoro-1-{[(2S)-oxetan-2-yl]methyl}-1H-1,3-benzodiazole-6-carboxylic acid]
O=C(O)c1ccc2nc(CN3CCC(c4cc(COc5ccc(Cl)cc5Cl)ccn4)C3)n(C[C@@H]3CCO3)c2c1 (stereo partly drawn) [Compound 391]
O=C(O)c1ccc2nc(CN3CC=C(c4nccc(COc5ccc(Cl)cc5F)n4)C3)n(C[C@@H]3CCO3)c2c1 [Example 435, (S)-2-((3-(4-((4-Chloro-2-fluorophenoxy)methyl)pyrimidin-2-yl)-2,5-dihydro-1H-pyrrol-1-yl)methyl)-1-(oxetan-2-ylmethyl)-1H-benzo[d]imidazole-6-carboxylic acid]
O=C(O)c1cc(F)c2nc(CN3CC[C@@H](c4ccnc(COc5ccc(Cl)cc5F)c4)C3)n(C[C@@H]3CCO3)c2c1 [Compound 428, 2-{[(3S)-3-{2-[(4-chloro-2-fluorophenoxy)methyl]pyridin-4-yl}pyrrolidin-1-yl]methyl}-4-fluoro-1-{[(2S)-oxetan-2-yl]methyl}-1H-1,3-benzodiazole-6-carboxylic acid]

EC50, > 500 nM:
CC1(c2ccc(Cl)cn2)Oc2cccc(CC3CN(Cc4nc5ccc(C(=O)O)cc5n4C[C@@H]4CCO4)C3)c2O1 (stereo partly drawn) [Compound 172, 2-[(3-{[2-(5-chloropyridin-2-yl)-2-methyl-2H-1,3-benzodioxol-4-yl]methyl}azetidin-1-yl)methyl]-1-{[(2S)-oxetan-2-yl]methyl}-1H-1,3-benzodiazole-6-carboxylic acid]
